This note sets out measurements from US20180214428A1, “3-(1H-INDOL-2-YL)-1H-PYRAZOLO[3,4-B]PYRIDINES AND THERAPEUTIC USES THEREOF” (Samumed, LLC, priority 2015, published 2018).

The structures appear in SMILES notation. Some results are limits rather than exact numbers.

The subject of assay [1] is Wnt activity (Sp5-Luc reporter gene, SW480 colon carcinoma cells). In words: Screening assay for Wnt activity: Sp5-Luc reporter gene assay in SW480 cells. The class given is cell-based, human. The conditions noted are these: for EC50: overnight incubation; for inhibition at 10 µM: given for EC50 of >10 μM, read-out: percent inhibition at 10 μM. The essentials:
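SW480 cells stably transduced with a luciferase reporter driven by an Sp5 promoter of eight TCF/LEF sites were plated at 4,000 cells/well in 1% FBS medium. They were exposed overnight at 37° C to a 10-point 1:3 dilution series from 10 μM (0.1% DMSO). Luminescence was normalized to DMSO for four-parameter EC50, or percent inhibition at 10 μM.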
(In general: Reporter assays use an easily measured gene product as a stand-in for the process of interest.)

Another assay deals with SW480 colon cancer cells. In words: Cell viability assay (CellTiter-Blue) in SW480 colon cancer cells. The conditions noted are these: for EC50: four days, CellTiter-Blue; for inhibition at 10 µM: given for EC50 of >10 μM, read-out: percent inhibition at 10 μM. The class given is cell-based, human. The gist of the method:
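SW480 colon cancer cells (~2×10^3/well) exposed to 8-point 1:3 dilutions from 10 μM to 0.0045 μM for four days at 37 °C/5% CO2. Viability read by resazurin (CellTiter-Blue) fluorescence after ~3 h, Ex 560/Em 590 nm. EC50 from non-linear regression; percent inhibition at 10 μM given when EC50 >10 μM.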
Background: Resazurin is reduced to fluorescent resorufin, in cell work by metabolically active cells.

Assay [2] has as its system primary human fibroblasts derived from IPF patients (LL29 cells). In words: Inhibition of the fibrotic process: αSMA staining in TGF-β1 treated LL29 fibroblasts. The format is cell-based. The conditions noted are these: for EC50: TGF-β1 20 ng/mL, 4 days, % αSMA positive cells; for inhibition at 10 µM: read-out: percent inhibition at 10 μM. The essentials:
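IPF patient-derived LL29 fibroblasts in 1% FBS medium got compound (11-point, 10 μM to 1.87 nM, 0.1% DMSO) plus TGF-β1 20 ng/mL, 4 days at 37° C. αSMA-positive live cells (SYTOX-excluded) were imaged, normalized to TGF-β1 controls and fitted for EC50; % inhibition at 10 μM given when EC50 >10 μM.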

[3] abbreviates: Homo sapiens, Fibroblast, at 10 μM, given for EC50 of >10 μM, TGF-β1, αSMA.

On to `CN(C)CCNc1cc(F)cc(-c2cccc3[nH]c(-c4n[nH]c5ncc(-c6cncc(CN7CCCCC7)c6)cc45)cc23)c1` [Compound 437, N^1-(3-Fluoro-5-(2-(5-(5-(piperidin-1-ylmethyl)pyridin-3-yl)-1H-pyrazolo[3,4-b]pyridin-3-yl)-1H-indol-4-yl)phenyl)-N^2,N^2-dimethylethane-1,2-diamine], for which the EC50 in assay [1] (Homo sapiens) is 2.78 µM; with SW480 colon cancer cells (Homo sapiens, 96 h) it was 3.86 µM; in assay [2] (Homo sapiens, Fibroblast, 96 h), 5.44 µM.

For `CN(C)CCNc1cc(F)cc(-c2cccc3[nH]c(-c4n[nH]c5ncc(-c6ccncc6)cc45)cc23)c1` [Compound 440], the EC50 in assay [1] was 6.07 µM; in the assay on SW480 colon cancer cells it was 4.14 µM; in assay [2] it was over 10 µM. Further, the “percent inhibition at 10 μM” value in assay [2] (at 10 μM, given for EC50 of >10 μM, TGF-β1, αSMA) is given as 0%.

With `CN(C)CCNc1cc(F)cc(-c2cccc3[nH]c(-c4n[nH]c5ncc(-c6cncc(NC(=O)C7CCC7)c6)cc45)cc23)c1` [Compound 443, N-(5-(3-(4-(3-((2-(Dimethylamino)ethyl)amino)-5-fluorophenyl)-1H-indol-2-yl)-1H-pyrazolo[3,4-b]pyridin-5-yl)pyridin-3-yl)cyclobutanecarboxamide], the half-maximal effective concentration (EC50) was determined as 0.215 µM in assay [1] (Homo sapiens); 1.23 µM in the assay on SW480 colon cancer cells (Homo sapiens, 96 h); 0.99 µM in assay [2] (Homo sapiens, Fibroblast, 96 h).

`CN(C)CCNc1cc(F)cc(-c2cccc3[nH]c(-c4n[nH]c5ncc(-c6cncnc6)cc45)cc23)c1` [Compound 449, N^1-(3-Fluoro-5-(2-(5-(pyrimidin-5-yl)-1H-pyrazolo[3,4-b]pyridin-3-yl)-1H-indol-4-yl)phenyl)-N^2,N^2-dimethylethane-1,2-diamine]: the EC50 stood at 2.6 µM in assay [1] (Homo sapiens); 1.3 µM in the assay with SW480 colon cancer cells (Homo sapiens, 96 h); 1.16 µM in assay [2] (Homo sapiens, Fibroblast, 96 h).

Turning to `CS(=O)(=O)NCc1cc(F)cc(-c2cccc3[nH]c(-c4n[nH]c5ncc(-c6cncc(N)c6)cc45)cc23)c1` [Compound 453, N-(3-(2-(5-(5-Aminopyridin-3-yl)-1H-pyrazolo[3,4-b]pyridin-3-yl)-1H-indol-4-yl)-5-fluorobenzyl)methanesulfonamide], the half-maximal effective concentration (EC50) in assay [1] (Homo sapiens) amounted to 0.157 µM; in the assay with SW480 colon cancer cells (Homo sapiens, 96 h), 0.997 µM; in assay [2] (Homo sapiens, Fibroblast, 96 h), 0.37 µM.

`Cc1ccncc1-c1cnc2[nH]nc(-c3cc4c(-c5cc(F)cc(CNS(C)(=O)=O)c5)cccc4[nH]3)c2c1` [Compound 455, N-(3-Fluoro-5-(2-(5-(4-methylpyridin-3-yl)-1H-pyrazolo[3,4-b]pyridin-3-yl)-1H-indol-4-yl)benzyl)methanesulfonamide]: the half-maximal effective concentration (EC50) was 0.3 µM in assay [1] (Homo sapiens); over 10 µM with SW480 colon cancer cells (Homo sapiens, 96 h); over 10 µM in assay [2] (Homo sapiens, Fibroblast, 96 h). Moreover, the values for the inhibition at 10 µM (in the assay with SW480 colon cancer cells (Homo sapiens); in assay [2] (setting [3])) were 8.7% and 43.9%, respectively.

On to `CN(C)Cc1cncc(-c2cnc3[nH]nc(-c4cc5c(-c6cc(F)cc(CNS(C)(=O)=O)c6)cccc5[nH]4)c3c2)c1` [Compound 463, N-(3-(2-(5-(5-((Dimethylamino)methyl)pyridin-3-yl)-1H-pyrazolo[3,4-b]pyridin-3-yl)-1H-indol-4-yl)-5-fluorobenzyl)methane sulfonamide], for which the EC50 in assay [1] (Homo sapiens) stood at 0.489 µM; in the assay with SW480 colon cancer cells (Homo sapiens, 96 h), 1.07 µM; in assay [2] (Homo sapiens, Fibroblast, 96 h) it was 2.03 µM.

Turning to `CS(=O)(=O)NCc1cc(F)cc(-c2cccc3[nH]c(-c4n[nH]c5ncc(-c6ccccn6)cc45)cc23)c1` [Compound 478, N-(3-Fluoro-5-(2-(5-(pyridin-2-yl)-1H-pyrazolo[3,4-b]pyridin-3-yl)-1H-indol-4-yl)benzyl)methanesulfonamide], the EC50 in assay [1] (Homo sapiens) is 3.88 µM; in the assay with SW480 colon cancer cells (Homo sapiens, 96 h), over 10 µM; in assay [2] (Homo sapiens, Fibroblast, 96 h) it was 2.42 µM. In addition, in the assay on SW480 colon cancer cells (Homo sapiens), the inhibition at 10 µM is 22.6%.

For `c1ccc(CNCc2cncc(-c3cnc4[nH]nc(-c5cc6ncccc6[nH]5)c4c3)c2)cc1` [Compound 502, 1-(5-(3-(1H-Pyrrolo[3,2-b]pyridin-2-yl)-1H-pyrazolo[3,4-b]pyridin-5-yl)pyridin-3-yl)-N-benzylmethanamine], the 50% effective concentration (EC50) is 3.96 µM in assay [1] (Homo sapiens); over 10 µM with SW480 colon cancer cells (Homo sapiens, 96 h); 3.12 µM in assay [2] (Homo sapiens, Fibroblast, 96 h). Further, the inhibition at 10 µM with SW480 colon cancer cells (Homo sapiens) came out at 9.8%.

Take `FC1(F)CCN(Cc2cncc(-c3cnc4[nH]nc(-c5cc6ncccc6[nH]5)c4c3)c2)C1` [Compound 504, 5-(5-((3,3-Difluoropyrrolidin-1-yl)methyl)pyridin-3-yl)-3-(1H-pyrrolo[3,2-b]pyridin-2-yl)-1H-pyrazolo[3,4-b]pyridine]: the results for the inhibition at 10 µM in assay [1] (Homo sapiens) and in assay [2] (setting [3]) were 42.4% and 14.8%, respectively. The EC50 was over 10 µM in assay [1] (Homo sapiens); 0.113 µM with SW480 colon cancer cells (Homo sapiens, 96 h); over 10 µM in assay [2] (Homo sapiens, Fibroblast, 96 h).

With `Fc1cccc(-c2cccc3[nH]c(-c4n[nH]c5ncc(-c6cncc(OCc7ccccc7)c6)cc45)cc23)c1` [Compound 520, 5-(5-(Benzyloxy)pyridin-3-yl)-3-(4-(3-fluorophenyl)-1H-indol-2-yl)-1H-pyrazolo[3,4-b]pyridine], the inhibition at 10 µM came to 18.2% in assay [1] (Homo sapiens) and 13.3% with SW480 colon cancer cells (Homo sapiens). The EC50 in assay [1] (Homo sapiens) was over 10 µM; in the assay with SW480 colon cancer cells (Homo sapiens, 96 h), over 10 µM; in assay [2] (Homo sapiens, Fibroblast, 96 h), 9.82 µM.

As for `Fc1ccccc1-c1cccc2[nH]c(-c3n[nH]c4ncc(C5CCNCC5)cc34)cc12` [Compound 539, 3-(4-(2-Fluorophenyl)-1H-indol-2-yl)-5-(piperidin-4-yl)-1H-pyrazolo[3,4-b]pyridine], the inhibition at 10 µM in assay [1] (Homo sapiens) was determined as 47.2%; with SW480 colon cancer cells (Homo sapiens), 51.5%. Besides, the EC50 in assay [1] (Homo sapiens) is over 10 µM; in the assay with SW480 colon cancer cells (Homo sapiens, 96 h), over 10 µM; in assay [2] (Homo sapiens, Fibroblast, 96 h), 5.08 µM.

For the molecule `CN(C)CCOc1cncc(-c2cnc3[nH]nc(-c4cc5c(-c6cccnc6)cccc5[nH]4)c3c2)c1` [Compound 565, N,N-Dimethyl-2-((5-(3-(4-(pyridin-3-yl)-1H-indol-2-yl)-1H-pyrazolo[3,4-b]pyridin-5-yl)pyridin-3-yl)oxy)ethan-1-amine], in assay [1] (Homo sapiens), the inhibition at 10 µM was determined as 34.5%. The EC50 was over 10 µM in assay [1] (Homo sapiens); 3.78 µM with SW480 colon cancer cells (Homo sapiens, 96 h); 1.93 µM in assay [2] (Homo sapiens, Fibroblast, 96 h).

On to `O=C(CC1CCNCC1)Nc1cncc(-c2cnc3[nH]nc(-c4cc5c(-c6ccccn6)cccc5[nH]4)c3c2)c1` [Compound 595, 2-(Piperidin-4-yl)-N-(5-(3-(4-(pyridin-2-yl)-1H-indol-2-yl)-1H-pyrazolo[3,4-b]pyridin-5-yl)pyridin-3-yl)acetamide], for which the half-maximal effective concentration (EC50) was 3.71 µM in assay [1] (Homo sapiens); over 10 µM in the assay on SW480 colon cancer cells (Homo sapiens, 96 h); 5.61 µM in assay [2] (Homo sapiens, Fibroblast, 96 h). In the assay with SW480 colon cancer cells (Homo sapiens), the inhibition at 10 µM worked out at 11.3%.

Turning to `Cc1ncc(-c2cnc3[nH]nc(-c4cc5ccccc5[nH]4)c3c2)n1C` [Compound 655, 5-(1,2-Dimethyl-1H-imidazol-5-yl)-3-(1H-indol-2-yl)-1H-pyrazolo[3,4-b]pyridine], the EC50 is 3.34 µM in assay [1] (Homo sapiens); 3.72 µM in the assay with SW480 colon cancer cells (Homo sapiens, 96 h); 3.88 µM in assay [2] (Homo sapiens, Fibroblast, 96 h).

With `Oc1cncc(-c2cnc3[nH]nc(-c4cc5c(-c6cccs6)cccc5[nH]4)c3c2)c1` [Compound 711, 5-(3-(4-(Thiophen-2-yl)-1H-indol-2-yl)-1H-pyrazolo[3,4-b]pyridin-5-yl) pyridin-3-ol], the EC50 was 9.77 µM in assay [1] (Homo sapiens); over 10 µM in the assay with SW480 colon cancer cells (Homo sapiens, 96 h); 0.456 µM in assay [2] (Homo sapiens, Fibroblast, 96 h). Also, in the assay with SW480 colon cancer cells (Homo sapiens), the inhibition at 10 µM came out at 10.3%.

A word on the EC50: it is the concentration that produces a half-maximal response. For orientation: inhibition means the share of the control response that was lost under treatment.
